How the values were obtained:
[1] = tested on: pigweed, palmer; assay: Test C preemergence; format: in vivo, Amaranthus palmeri
Method in brief: (§1)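 Seeds sown in loam soil–sand blend received a directed preemergence soil spray of test chemical in non-phytotoxic solvent with surfactant; postemergence plants (2–10 cm, one- to two-leaf stage) were sprayed with the same formulation. Greenhouse-held 10 days, then visually rated for injury versus untreated controls, 0 (no effect) to 100 (complete control).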

[2] = tested on: wheat; assay: Test C preemergence; format: in vivo, Triticum aestivum
Method in brief: as §1

[3] = tested on: soybean; assay: Test C postemergence; format: in vivo, Glycine max; details: 10 days, 0 to 100 scale (0 no effect, 100 complete control)
Method in brief: as §1

[4] = tested on: galium; assay: Test C postemergence; format: in vivo, Galium aparine; details: 10 days, 0 to 100 scale (0 no effect, 100 complete control)
Method in brief: as §1

[5] = tested on: oat, wild; assay: Test C preemergence; format: in vivo, Avena fatua
Method in brief: as §1

[6] = tested on: ragweed; assay: Test C postemergence; format: in vivo, Ambrosia artemisiifolia; details: 10 days, 0 to 100 scale (0 no effect, 100 complete control)
Method in brief: as §1

[7] = tested on: barnyardgrass; assay: Test C postemergence; format: in vivo, Echinochloa crusgalli; details: 10 days, 0 to 100 scale (0 no effect, 100 complete control)
Method in brief: as §1

[8] = tested on: sedge, umbrella; assay: Test D flooded paddy test; format: in vivo, Cyperus difformis; details: 250 g ai/ha, applied to paddy water, visual rating after 13 to 14 days, scale 0 to 100 (0 no effect, 100 complete control)
Method in brief: (§2)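 At the 2-leaf stage, floodwater 3 cm deep received the test compound; that depth persisted throughout. Plants scored visually 13 to 14 days on, 0 (no effect) to 100 (complete control), dash indicating no result.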

[9] = tested on: oat, wild; assay: Test C postemergence; format: in vivo, Avena fatua; details: 10 days, 0 to 100 scale (0 no effect, 100 complete control)
Method in brief: as §1

[10] = tested on: kochia; assay: Test C preemergence; format: in vivo, Bassia scoparia
Method in brief: as §1

[11] = tested on: soybean; assay: Test C preemergence; format: in vivo, Glycine max
Method in brief: as §1

[12] = tested on: ryegrass, Italian; assay: Test C preemergence; format: in vivo, Lolium multiflorum
Method in brief: as §1

[13] = tested on: barnyardgrass; assay: Test D flooded paddy test; format: in vivo, Echinochloa crus-galli; details: 250 g ai/ha, applied to paddy water, visual rating after 13 to 14 days, scale 0 to 100 (0 no effect, 100 complete control)
Method in brief: as §2

[14] = tested on: horseweed; assay: Test C postemergence; format: in vivo, Erigeron canadensis; details: 10 days, 0 to 100 scale (0 no effect, 100 complete control)
Method in brief: as §1

[15] = tested on: rice; assay: Test D flooded paddy test; format: in vivo, Oryza sativa; details: 250 g ai/ha, applied to paddy water, visual rating after 13 to 14 days, scale 0 to 100 (0 no effect, 100 complete control)
Method in brief: as §2

[16] = tested on: kochia; assay: Test C postemergence; format: in vivo, Bassia scoparia; details: 10 days, 0 to 100 scale (0 no effect, 100 complete control)
Method in brief: as §1

[17] = tested on: foxtail, giant; assay: Test C postemergence; format: in vivo, Setaria faberi; details: 10 days, 0 to 100 scale (0 no effect, 100 complete control)
Method in brief: as §1

[18] = tested on: blackgrass; assay: Test C preemergence; format: in vivo, Alopecurus myosuroides
Method in brief: as §1

[19] = tested on: foxtail, giant; assay: Test C preemergence; format: in vivo, Setaria faberi
Method in brief: as §1

[20] = tested on: barnyardgrass; assay: Test C preemergence; format: in vivo, Echinochloa crusgalli
Method in brief: as §1

[21] = tested on: ragweed; assay: Test C preemergence; format: in vivo, Ambrosia artemisiifolia
Method in brief: as §1

[22] = tested on: ducksalad; assay: Test D flooded paddy test; format: in vivo, Heteranthera limosa; details: 250 g ai/ha, applied to paddy water, visual rating after 13 to 14 days, scale 0 to 100 (0 no effect, 100 complete control)
Method in brief: as §2

[23] = tested on: pigweed, palmer; assay: Test C postemergence; format: in vivo, Amaranthus palmeri; details: 10 days, 0 to 100 scale (0 no effect, 100 complete control)
Method in brief: as §1

[24] = tested on: ryegrass, Italian; assay: Test C postemergence; format: in vivo, Lolium multiflorum; details: 10 days, 0 to 100 scale (0 no effect, 100 complete control)
Method in brief: as §1

[25] = tested on: blackgrass; assay: Test C postemergence; format: in vivo, Alopecurus myosuroides; details: 10 days, 0 to 100 scale (0 no effect, 100 complete control)
Method in brief: as §1

[26] = tested on: corn; assay: Test C postemergence; format: in vivo, Zea mays; details: 10 days, 0 to 100 scale (0 no effect, 100 complete control)
Method in brief: as §1

[27] = tested on: corn; assay: Test C preemergence; format: in vivo, Zea mays
Method in brief: as §1

[28] = tested on: wheat; assay: Test C postemergence; format: in vivo, Triticum aestivum; details: 10 days, 0 to 100 scale (0 no effect, 100 complete control)
Method in brief: as §1

[29] = 500 g ai/ha, preemergence, 0 to 100 scale (0 no effect, 100 complete control)
[30] = Preemergence, 125 g ai/ha, 0 to 100 scale, 0 no effect, 100 complete control

CCc1ncn(-c2cc(C(=O)N3CC(C(F)(F)F)Oc4c(C)cccc43)ccn2)n1 (stereo not shown) [Compound 318]
Pigweed, Palmer plant response rating [1, 29]: 90 | Plant response rating, Pigweed, Palmer [1, 30]: 50 | Wheat plant response rating [2, 29]: 90 | Plant response rating, Wheat [2, 30]: 30 | Plant response rating, Soybean ([3]; 500 g ai/ha, postemergence): 100 | Plant response rating, Soybean ([3]; Postemergence, 125 g ai/ha): 100 | Plant response rating, Galium ([4]; 500 g ai/ha, postemergence): 100 | Plant response rating, Galium ([4]; Postemergence, 125 g ai/ha): 100 | Oat, Wild plant response rating [5, 29]: 90 | Plant response rating, Oat, Wild [5, 30]: 50 | Plant response rating, Ragweed ([6]; 500 g ai/ha, postemergence): 30 | Plant response rating, Ragweed ([6]; Postemergence, 125 g ai/ha): 0 | Plant response rating, Barnyardgrass ([7]; 500 g ai/ha, postemergence): 70 | Plant response rating, Barnyardgrass ([7]; Postemergence, 125 g ai/ha): 50 | Plant response rating, Sedge, Umbrella (Flood) [8]: 45 | Plant response rating, Oat, Wild ([9]; 500 g ai/ha, postemergence): 80 | Plant response rating, Oat, Wild ([9]; Postemergence, 125 g ai/ha): 40 | Kochia plant response rating [10, 29]: 90 | Plant response rating, Kochia [10, 30]: 70 | Soybean plant response rating [11, 29]: 100 | Plant response rating, Soybean [11, 30]: 30 | Ryegrass, Italian plant response rating [12, 29]: 100 | Plant response rating, Ryegrass, Italian [12, 30]: 90 | Plant response rating, Barnyardgrass (Flood) [13]: 45 | Plant response rating, Horseweed ([14]; 500 g ai/ha, postemergence): 20 | Plant response rating, Horseweed ([14]; Postemergence, 125 g ai/ha): 0 | Plant response rating, Rice (Flood) [15]: 15 | Plant response rating, Kochia ([16]; 500 g ai/ha, postemergence): 80 | Plant response rating, Kochia ([16]; Postemergence, 125 g ai/ha): 50 | Plant response rating, Foxtail, Giant ([17]; 500 g ai/ha, postemergence): 90 | Plant response rating, Foxtail, Giant ([17]; Postemergence, 125 g ai/ha): 90 | Blackgrass plant response rating [18, 29]: 90 | Plant response rating, Blackgrass [18, 30]: 80 | Foxtail, Giant plant response rating [19, 29]: 100 | Plant response rating, Foxtail, Giant [19, 30]: 100 | Barnyardgrass plant response rating [20, 29]: 100 | Plant response rating, Barnyardgrass [20, 30]: 90 | Ragweed plant response rating [21, 29]: 40 | Plant response rating, Ragweed [21, 30]: 0 | Plant response rating, Ducksalad (Flood) [22]: 10 | Plant response rating, Pigweed, Palmer ([23]; 500 g ai/ha, postemergence): 60 | Plant response rating, Pigweed, Palmer ([23]; Postemergence, 125 g ai/ha): 20 | Plant response rating, Ryegrass, Italian ([24]; 500 g ai/ha, postemergence): 100 | Plant response rating, Ryegrass, Italian ([24]; Postemergence, 125 g ai/ha): 60 | Plant response rating, Blackgrass ([25]; 500 g ai/ha, postemergence): 90 | Plant response rating, Blackgrass ([25]; Postemergence, 125 g ai/ha): 60 | Plant response rating, Corn ([26]; 500 g ai/ha, postemergence): 80 | Plant response rating, Corn ([26]; Postemergence, 125 g ai/ha): 70 | Corn plant response rating [27, 29]: 80 | Plant response rating, Corn [27, 30]: 30 | Plant response rating, Wheat ([28]; 500 g ai/ha, postemergence): 50 | Plant response rating, Wheat ([28]; Postemergence, 125 g ai/ha): 40
